Measurements: PMC10458862, “Binding Specificity of a Novel Cyclo/Maltodextrin-Binding Protein and Its Role in the Cyclodextrin ABC Importer System from Thermoanaerobacterales” (Molecules, 2023)
Read-outs that look alike come from different tables or passages of the source. Marks after values point to notes of the source that are not given here.

Experiments:
MdxE [1] = target: T1, MdxE (Thermoanaerobacter mathranii subsp. mathranii, UniProt A0ABM5LRQ5); experiment: ANS fluorescence determination of protein surface hydrophobicity (Ho) of MdxE-ligand complexes; set-up: species or system Thermoanaerobacter mathranii subsp. mathranii A3; settings: for Ho (protein surface hydrophobicity, slope of RFU versus MdxE concentration): MdxE 2–14 µM, 350 µM ligand, 20 µM ANS, λmax = 485 nm, letters = Tukey groups (p < 0.05)
T1 sequence (A0ABM5LRQ5 entry or part of it): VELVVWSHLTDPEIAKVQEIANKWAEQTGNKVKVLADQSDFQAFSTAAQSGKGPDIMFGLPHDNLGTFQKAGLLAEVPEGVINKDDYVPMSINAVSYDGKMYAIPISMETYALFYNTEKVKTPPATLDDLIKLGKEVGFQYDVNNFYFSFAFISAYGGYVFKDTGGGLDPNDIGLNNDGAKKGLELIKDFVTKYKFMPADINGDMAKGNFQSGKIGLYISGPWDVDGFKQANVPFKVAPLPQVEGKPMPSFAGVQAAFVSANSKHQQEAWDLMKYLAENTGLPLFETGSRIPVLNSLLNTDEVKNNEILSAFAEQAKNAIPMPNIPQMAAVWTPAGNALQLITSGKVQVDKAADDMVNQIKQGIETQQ
Experimental: To evaluate the switching from an open to a closed form of productive MdxE-ligand complexes obtained with the sugars listed in Table 1, changes in the protein surface hydrophobicity (Ho) of MdxE-ligand complexes using the fluorescent probe 8-anilinonaphthalene-1-sulfonate (ANS) were determined (Figure 4).
The changes in H0 associated with the open-to-closed conformational changes of productive MdxE-ligand complexes were determined based on the method described previously, using a Nanodrop ND-3300 fluorospectrometer (Thermo Fisher, Waltham, MA, USA) controlled by ND-3300 v2.8.0 software with ANS as a fluorescence probe at an excitation wavelength of 365 nm and 400–600 nm as the range for emission scan. The fluorescent response was measured in RFU using buffer C for all solutions. […] For H0 measurements, MdxE-ligand complexes were heated at 55 °C for 10 min. Subsequently, ANS was added to form the (MdxE-ligand)-ANS complexes, and the solutions were heated again at 55 °C for 3 min; then, the solutions were cooled to room temperature. Data were analyzed in triplicate (n = 3), and H0 was estimated as the slope of the linear curve fitted for RFU versus MdxE concentrations plotted at the maximum emission wavelength (λ = 485 nm) using the emtrends() function from emmeans package in R [58, 59]. A Tukey’s test (α = 0.05) for multiple comparisons was performed to determine significant differences in H0 between CDs and linear dextrins tested. All fluorescence measurements were made at 22 °C.

EcoMBP = settings: cited from earlier work
TvuCMBP = target: TvuCMBP; set-up: method as in PMID 17371546; settings: ND = not detected; cited from earlier work
MdxE [2] = target: T1, MdxE; experiment: ITC measurements of MdxE-ligand binding; set-up: species or system Thermoanaerobacter mathranii subsp. mathranii A3
Experimental: To assess the binding affinities of MdxE toward different linear dextrins and CDs for the CM-CD pathway, functional experiments of MdxE-ligand complex formation were performed using isothermal titration calorimetry (ITC) to determine the dissociation constant (Kd) and enthalpy (ΔH) for ligand binding, as well as the Gibbs free energy (ΔG) contribution to the binding (Figure 3).
Purified MdxE at 4 μM was titrated with 0.8 mM CDs and linear dextrins using a VP-ITC calorimeter (Cytiva) at 55 °C. In all measurements, the sample cell and syringe were filled with protein and ligand solution, respectively, and the reference cell was filled with ultrapure water. The stirring speed of the sample syringe during measurements was 250 rpm. After baseline stabilization and an initial injection of 2 µL, 25 successive injections of 11 µL were carried out with a 5 min equilibration period between injections. Since both protein and ligands were in buffer C, the heat of dilution was neglected in the experiments. The resulting data were analyzed in triplicate (n = 3) using the Origin 7 ITC analysis v7.0 software from Microcal by fitting the titration curves to a single binding site model.

CymE = target: CymE; set-up: method as in PMID 9573146; settings: ND = not detected; cited from earlier work
AcyMBP = target: AcyMBP; set-up: method as in PMID 11053372; settings: cited from earlier work
[3] = ITC, 55 °C, 4 μM MdxE titrated with 0.8 mM ligand, single binding site model, n = 3, ND = not detected, read-out: Kd MdxE

OC[C@H]1O[C@H](O[C@H]2[C@H](O)[C@@H](O)[C@@H](O[C@H]3[C@H](O)[C@@H](O)C(O)O[C@@H]3CO)O[C@@H]2CO)[C@H](O)[C@@H](O)[C@@H]1O (mixture of isomers) [G3, maltotriose]
Ho (protein surface hydrophobicity, slope of RFU versus MdxE concentration) (MdxE [1]): 24.3 ^c
Kd (EcoMBP): 200 nM
Kd (TvuCMBP): 970 nM
Kd (MdxE [2]; [3]): 3020 nM
ΔG (MdxE [2]; ITC, 55 °C, ND = not detected): -8.50 kcal/mol
ΔH (MdxE [2]; ITC, 55 °C, ND = not detected): -8.64 kcal/mol

OC[C@H]1O[C@@H]2O[C@H]3[C@H](O)[C@@H](O)[C@@H](O[C@H]4[C@H](O)[C@@H](O)[C@@H](O[C@H]5[C@H](O)[C@@H](O)[C@@H](O[C@H]6[C@H](O)[C@@H](O)[C@@H](O[C@H]7[C@H](O)[C@@H](O)[C@@H](O[C@H]8[C@H](O)[C@@H](O)[C@@H](O[C@H]1[C@H](O)[C@H]2O)O[C@@H]8CO)O[C@@H]7CO)O[C@@H]6CO)O[C@@H]5CO)O[C@@H]4CO)O[C@@H]3CO [β-CD]
Ho (protein surface hydrophobicity, slope of RFU versus MdxE concentration) (MdxE [1]): 41.8 ^b
open-to-closed conformational change of MdxE (MdxE [1]; fluorescence analysis with ANS): solely triggered
Kd (EcoMBP): 1000 nM
Kd (CymE): 140 nM
Kd (TvuCMBP): 1200 nM
Kd (MdxE [2]; [3]): 2040 nM
ΔH (MdxE [2]; ITC, 55 °C, ND = not detected): -5.28 kcal/mol

OC[C@H]1O[C@H](O[C@H]2[C@H](O)[C@@H](O)C(O)O[C@@H]2CO)[C@H](O)[C@@H](O)[C@@H]1O (mixture of isomers) [G2, maltose]
Ho (protein surface hydrophobicity, slope of RFU versus MdxE concentration) (MdxE [1]): 15.1 ^d
MdxE-ligand complex formation by fluorescence measurements (MdxE [1]; fluorescence analysis with ANS): no MdxE-G2 complex formation was observed
Kd (EcoMBP): 1000 nM
Kd (TvuCMBP): 410 nM
Kd MdxE (MdxE [2]; ITC, 55 °C, 4 μM MdxE titrated with 0.8 mM ligand, single binding site model, n = 3, ND = not detected): no binding interaction was observed
Kd (AcyMBP): 1500 nM

maltoheptaose [G7]
Ho (protein surface hydrophobicity, slope of RFU versus MdxE concentration) (MdxE [1]): 27.1 ^c
Kd (CymE): 70000 nM
Kd (MdxE [2]; [3]): 910 nM
ΔG (MdxE [2]; ITC, 55 °C, ND = not detected): -9.09 kcal/mol
ΔH (MdxE [2]; ITC, 55 °C, ND = not detected): -11.54 kcal/mol

maltohexaose [G6]
Ho (protein surface hydrophobicity, slope of RFU versus MdxE concentration) (MdxE [1]): 26.8 ^c
Kd (MdxE [2]; [3]): 1850 nM
ΔG (MdxE [2]; ITC, 55 °C, ND = not detected): -8.61 kcal/mol
ΔH (MdxE [2]; ITC, 55 °C, ND = not detected): -12.98 kcal/mol

OC[C@H]1O[C@@H]2O[C@H]3[C@H](O)[C@@H](O)[C@@H](O[C@H]4[C@H](O)[C@@H](O)[C@@H](O[C@H]5[C@H](O)[C@@H](O)[C@@H](O[C@H]6[C@H](O)[C@@H](O)[C@@H](O[C@H]7[C@H](O)[C@@H](O)[C@@H](O[C@H]8[C@H](O)[C@@H](O)[C@@H](O[C@H]9[C@H](O)[C@@H](O)[C@@H](O[C@H]1[C@H](O)[C@H]2O)O[C@@H]9CO)O[C@@H]8CO)O[C@@H]7CO)O[C@@H]6CO)O[C@@H]5CO)O[C@@H]4CO)O[C@@H]3CO [γ-CD]
Ho (protein surface hydrophobicity, slope of RFU versus MdxE concentration) (MdxE [1]): 24.5 ^c
Kd (CymE): 300 nM
Kd (TvuCMBP): 230 nM
Kd (MdxE [2]; [3]): 1510 nM
ΔH (MdxE [2]; ITC, 55 °C, ND = not detected): -6.50 kcal/mol

OC[C@H]1O[C@@H]2O[C@H]3[C@H](O)[C@@H](O)[C@@H](O[C@H]4[C@H](O)[C@@H](O)[C@@H](O[C@H]5[C@H](O)[C@@H](O)[C@@H](O[C@H]6[C@H](O)[C@@H](O)[C@@H](O[C@H]7[C@H](O)[C@@H](O)[C@@H](O[C@H]1[C@H](O)[C@H]2O)O[C@@H]7CO)O[C@@H]6CO)O[C@@H]5CO)O[C@@H]4CO)O[C@@H]3CO [α-CD]
Ho (protein surface hydrophobicity, slope of RFU versus MdxE concentration) (MdxE [1]): 37.1 ^a
open-to-closed conformational change of MdxE (MdxE [1]; fluorescence analysis with ANS): solely triggered
Kd (CymE): 20 nM
Kd (TvuCMBP): 730 nM
Kd (MdxE [2]): 610 nM
ΔH (MdxE [2]; ITC, 55 °C, ND = not detected): -6.83 kcal/mol

maltopentaose [G5]
Ho (protein surface hydrophobicity, slope of RFU versus MdxE concentration) (MdxE [1]): 27.3 ^c
Kd (TvuCMBP): 200 nM
Kd (MdxE [2]; [3]): 2440 nM
ΔG (MdxE [2]; ITC, 55 °C, ND = not detected): -8.30 kcal/mol
ΔH (MdxE [2]; ITC, 55 °C, ND = not detected): -13.94 kcal/mol
